The results in this text go back to the NIST ThermoML archive (doi:10.1016/j.jct.2013.05.019).

Molecules are shown by their SMILES. Numbers after ± are expanded uncertainties.

The conditions of this series: Liquid; for viscosity: Falling or rolling sphere viscometry; for mass density: Vibrating tube method; for electrical conductivity: Alternating current cell with electrodes.

In general, viscosity refers to the resistance of a fluid to flow. `O` [water]: the viscosity by setting is: (293.15 K, 101.33 kPa) 1.002 ± 0.021 mPa·s; (298.15 K, 101.33 kPa) 0.89 ± 0.019 mPa·s; (303.15 K, 101.33 kPa) 0.797 ± 0.017 mPa·s; (308.15 K, 101.33 kPa) 0.718 ± 0.015 mPa·s; (313.15 K, 101.33 kPa) 0.651 ± 0.014 mPa·s.

One may read the mass density as the mass of a sample divided by its volume. Consider `CC(=O)O.CCCCN` [butylammonium acetate], for which the viscosity is, setting by setting: (293.15 K, 101 kPa) 771.69 ± 71 mPa·s; (298.15 K, 101 kPa) 546.35 ± 44 mPa·s; (303.15 K, 101 kPa) 397.17 ± 28 mPa·s; (308.15 K, 101 kPa) 294.59 ± 18 mPa·s; (313.15 K, 101 kPa) 222.24 ± 11 mPa·s. Besides, the mass density stood at 959.61 ± 0.23 kg/m3 (293.15 K, 101 kPa); 956.44 ± 0.23 kg/m3 (298.15 K, 101 kPa); 953.33 ± 0.23 kg/m3 (303.15 K, 101 kPa); 950.15 ± 0.23 kg/m3 (308.15 K, 101 kPa); 946.98 ± 0.23 kg/m3 (313.15 K, 101 kPa). Also, the electrical conductivity (298.15 K, 101 kPa) worked out at 0.021 ± 0.001 S/m.

Take `CCCC[NH3+].O=[N+]([O-])[O-]` [n-butylammonium nitrate]: the viscosity is on record as 111.35 ± 3.6 mPa·s (293.15 K, 101 kPa); 89.95 ± 2.5 mPa·s (298.15 K, 101 kPa); 73.04 ± 1.8 mPa·s (303.15 K, 101 kPa); 60.25 ± 1.3 mPa·s (308.15 K, 101 kPa); 50.12 ± 1.1 mPa·s (313.15 K, 101 kPa). Further, the mass density (293.15 K, 101 kPa) worked out at 1104.68 ± 0.31 kg/m3; the mass density (298.15 K, 101 kPa) was found to be 1101.52 ± 0.31 kg/m3; the mass density (303.15 K, 101 kPa) was found to be 1098.38 ± 0.31 kg/m3; the mass density (308.15 K, 101 kPa) was found to be 1095.26 ± 0.31 kg/m3; the mass density (313.15 K, 101 kPa) was found to be 1092.17 ± 0.3 kg/m3. Moreover, the electrical conductivity (298.15 K, 101 kPa) is 0.867 ± 0.017 S/m.
